Several values for one entry are separate records, joined by “and”; a condition that tells them apart may be missing. Equal values may be shown once.
How the values were obtained:
Type in all cases: in vivo, human
[1] = test system: adult patients with Gaucher disease Type 3; assay: GD3 clinical study: trail making test (TMT); details: GD3, 15 mg/day oral + imiglucerase
Excerpt: The trail making test (TMT) was used to evaluate cognitive function in the patients. The TMT is one of the most widely used neuropsychological tests and is included in most test batteries. The TMT is a diagnostic tool to assess general intelligence and cognitive dysfunctions (Tombaugh et al. [2004]; Cavaco et al. [2013]). In part A of the TMT, subjects are asked to connect a cluster of numbers in ascending order. This task is a combination of visual search and general visual and motor processing speed. Part B presents a sequence which alternates between numbers and letters. Subjects must actively switch between both categories when connecting them in ascending, but alternating order.
TMT-A evaluates mainly perceptual and psychomotor speed. TMT-B assesses more specifically mental flexibility and shifting abilities. TMT B minus TMT A score is used to remove the variance attributable to the graphomotor and visual scanning components of TMT A. This derived score reflects the unique task requirements of TMT B.

[2] = test system: adult patients with Gaucher disease Type 3; assay: GD3 clinical study: markers for systemic disease (spleen volume, platelet count, hemoglobin); details: GD3, 15 mg/day oral + imiglucerase
Method: During the study patients were evaluated for safety and tolerability, CSF and plasma biomarkers (glucosylceramide, GL-1; glucosylsphingosine, lyso-GL1), pharmacokinetics, markers for systemic disease (spleen and liver volume measured by magnetic resonance imaging (MRI), platelet count, hemoglobin levels), indicia of interstitial lung disease (high resolution pulmonary computed tomography (CT)), and horizontal saccadic eye movement.
Individual patient data for platelet counts are shown in the table below (shown as 10^9 platelets/L): […]

[3] = Phase 1 Study 1 Part 2: PK with and without a high-fat meal; details: healthy men, single oral 5 mg, fed vs fasting
Excerpt: Study 1 was a 2-part single-center trial in healthy adult male volunteers.
After a 7-day washout period, participants were crossed over to the other condition.

[4] = Phase 1 studies: safety profile
Method: In all studies, safety profile was assessed by monitoring treatment-emergent adverse events (TEAEs) through 10 days after last dose of study medication, including serious adverse events [SAEs]), ECG monitoring, laboratory values, and physical examinations.

[5] = healthy volunteers, all Phase 1 studies

For `CC(C)(NC(=O)O[C@@H]1CN2CCC1CC2)c1csc(-c2ccc(F)cc2)n1` [Compound 2, (S)-quinuclidin-3-yl (2-(2-(4-fluorophenyl)thiazol-4-yl)propan-2-yl)carbamate], the “TMT-A-TMT-B” value ([1]; Week 52, individual patients 1-6) was 20 s, the “patients with a TMT-A reduction, excluding Patient 5” value ([1]; Week 52) was “four of five” and the “patients with a TMT-B reduction, excluding Patient 5” value ([1]; Week 52) was “five of five”. The “patients with a reduction in the (TMT B-TMT A) time” value ([1]; Week 52) was 5 of 6, the “patients with an improvement in Trail B minus Trial A, excluding Patient 5” value ([1]; Week 52) was “four of five” and the “patients with reduction in time taken to complete Trail A” value ([1]; Week 52) was “Four of six”. The “patients with reduction in time taken to complete Trail B” value ([1]; Week 52) was “six of six”, the “TMT-A-TMT-B, Change (%) from Baseline to Week 52” value ([1]; individual patients 1-6) was −72% and −43% and the systemic deterioration ([2]; 26 weeks, all patients) was “absence of systemic deterioration”. For the same compound, the “changes in hemoglobin levels” value ([2]; 26 weeks) was “no clinically meaningful changes”, the “patients with reductions in splenic volume of 10% or more” value ([2]; 26 weeks) was “Two” and the “changes in hemoglobin levels” value ([2]; Week 52) was “no clinically meaningful changes”. For the same compound, the “patients with spleen volume reductions” value ([2]; Week 52) was “two”, the “effect of a high-fat meal on Compound 2 exposure” value [3] was “no effect” and the Vital signs [4, 5] was “no relevant changes from baseline”. For the same compound, the “deaths, SAEs, severe TEAEs, discontinuations” value [4, 5] was “no deaths, SAEs, severe TEAEs, or TEAEs leading to study discontinuation”, the “hematologic or biochemical abnormalities” value [4, 5] was “No clinically relevant hematologic or biochemical abnormalities” and the ECG parameters ([4]; single ascending dose and food effect studies) was “no relevant changes”.

From US20220023273A1, “METHODS FOR TREATING SYMPTOMS AND DISORDERS ASSOCIATED WITH LYSOSOMAL STORAGE DISEASES” (GENZYME CORPORATION, priority 2019, published 2022)
